Measurements as given in patent US7858349B2, “Anti-cancer compounds” (The Regents of the University of Colorado, priority 1999, dated 2010).
Like-named read-outs stand apart in the source and are kept apart here.

What was measured:
SCLC strain SHP-77 = assay: MTT assay for cell survival, SCLC SHP-77 in vitro; assay type: cell-based, human; conditions: ED50 for killing of SCLC strain SHP-77 in vitro, 4 days, 0 = no detectable activity
PC3 PC cells = assay: Inhibition of PC3 tumor growth in vivo in nude mice; set-up: species or system athymic nude mice; key to PC3 In vivo % inhib.: an IC50 value of “0” represents no detectable anti-cancer activity for a drug in a given cell line; “Stim.” indicates the observation of a stimulatory activity on the growth of the cancer cell line; conditions: percent inhibition of tumor growth in nude mice; prostate cancer; i.p. 5 mg/kg/every second day or 10 mg/kg/every fourth day
Experimental: Compounds having high in vitro cytotoxic activity were tested against implanted tumors in vivo. Athymic nude mice were implanted subcutaneously with suspensions (2 million SHP-77 SCLC cells, 1 million A549 NSCLC cells or 1.5 million PC3 PC cells) in Matrigel suspension. On the eighth day after tumor implantation groups of 5 mice bearing implants were injected intraperitoneally with the compounds being tested at 5 mg/kg/every second day or at 10 mg/kg/every fourth day; control animals were injected with an equal volume of isotonic saline. Less soluble compounds were initially dissolved in dimethyl sulfoxide (DMSO) and diluted with medium. In those cases the control injections contained the same concentration of DMSO. Tumor size was measured with a caliper three times per week. Tumor volume was calculated by the formula: Volume(cc)=3.14×(length)×(width)^2/6 At autopsy tumors were removed and weighed. Tumor inhibition was calculated on both weight and measurement basis. In each Table, an IC50 value of “0” represents no detectable anti-cancer activity for a drug in a given cell line and “Stim.” indicates the observation of a stimulatory activity on the growth of the cancer cell line.

| SMILES | IC50 (SCLC strain SHP-77; read-out: SCLC SHP-77 IC50) [µM] | PC3 In vivo % inhib. (PC3 PC cells) | IC50 (SCLC strain SHP-77; read-out: SHP-77 In vitro IC50) [µM] |
| --- | --- | --- | --- |
| COc1ccc2cc(C(C)C(=O)NC(C(=O)NC3CC(C)(C)NC(C)(C)C3)C(C)(C)SCc3ccc(C)cc3)ccc2c1 (stereo not drawn) [Analog M-1506, Napr-Pen(Mbzl)-Atmp] | 4.7 | 13% | – |
| CC1(C)CC(NC(=O)[C@H](Cc2ccc(OCc3c(Cl)cccc3Cl)cc2)NC(=O)c2c3ccccc3nc3ccccc23)CC(C)(C)N1 [Analog M-1602, Acrc-OC2Y-Atmp] | 1.6 | Stim. | – |
| CC1(C)CC(NC(=O)C(Cc2ccc(OCc3c(Cl)cccc3Cl)cc2)NC(=O)C=Cc2ccc(C=O)cc2)CC(C)(C)N1 (stereo not drawn) [Analog M-1456, Fcin-OC2Y-Atmp] | 4 | 17% | – |
| CC1(C)CC(NC(=O)[C@H](Cc2ccc(C#N)cc2)NC(=O)C23CC4CC(CC(C4)C2)C3)CC(C)(C)N1 [Analog M-1496, Aca-PCNF-Atmp] | > 60 | 2% | – |
| CC1(C)CC(NC(=O)C(Cc2ccc(OCc3c(Cl)cccc3Cl)cc2)NC(=O)C(=Cc2ccccc2)c2ccccc2)CC(C)(C)N1 (stereo not drawn) [Analog M-1400, Pcn-OC2Y-Atmp] | 1.3 | Stim. | – |
| CN1CCN(CCCNC(=O)[C@H](Cc2ccc(OCc3c(Cl)cccc3Cl)cc2)NC(=O)/C=C/c2c(F)c(F)c(F)c(F)c2F)CC1 [Analog M-1582, F5c-OC2Y-Amp] | 6.7 | 60% | – |
| CC1(C)CC(NC(=O)C(Cc2ccc(OCc3c(Cl)cccc3Cl)cc2)NC(=O)C2(c3ccc(Cl)cc3)CC2)CC(C)(C)N1 (stereo not drawn) [Analog M-1422, Cpcpc-OC2Y-Atmp] | 13 | 31% | – |
| CCCCC/C=C\C/C=C\C/C=C\C/C=C\CCCC(=O)NC(Cc1ccc(OCc2c(Cl)cccc2Cl)cc1)C(=O)NC1CC(C)(C)NC(C)(C)C1 (stereo not drawn) [Analog M-1442, Arac-OC2Y-Atmp] | 6.4 | 31% | – |
| CC1(C)CC(NC(=O)C(Cc2ccc(OCc3c(Cl)cccc3Cl)cc2)NC(=O)C2CC(=O)NC(=O)N2)CC(C)(C)N1 (stereo not drawn) [Analog M-1462, Hor-OC2Y-Atmp] | > 60 | 7% | – |
| CC1(C)CC(NC(=O)[C@@H](Cc2ccc(OCc3c(Cl)cccc3Cl)cc2)NC(=O)/C=C/c2c(F)c(F)c(F)c(F)c2F)CC(C)(C)N1 [Analog M-1108, F5c-D-OC2Y-Atmp] | – | 46% | > 60 |
| CC1(C)CC(NC(=O)[C@H](Cc2ccc(OCc3c(Cl)cccc3Cl)cc2)NCc2c(F)c(F)c(F)c(F)c2F)CC(C)(C)N1 [Analog M-1594, F5b-OC2Y-Atmp] | 3.1 | 20% | – |
| CC1(C)CC(NC(=O)C(Cc2ccc(OCc3c(Cl)cccc3Cl)cc2)NC(=O)C=Cc2ccc3c(c2)OCO3)CC(C)(C)N1 (stereo not drawn) [Analog M-1414, 34Mdc-OC2Y-Atmp] | 7.1 | Stim. | – |
| CC1(C)CC(NC(=O)[C@H](Cc2ccc(OC(=O)OCc3ccccc3Br)cc2)NC(=O)/C=C/c2c(F)c(F)c(F)c(F)c2F)CC(C)(C)N1 [Analog M-1608, F5c-ObrZY-Atmp] | 10 | 29% | – |
| CC1(C)CC(NC(=O)C(Cc2ccc(OCc3c(Cl)cccc3Cl)cc2)NC(=O)c2ccc(OC(F)(F)F)cc2)CC(C)(C)N1 (stereo not drawn) [Analog M-1538, 4Tfmb-OC2Y-Atmp] | 1.8 | Stim. | – |
| COc1ccc2c(c1)c(CC(=O)NC(Cc1ccc(OCc3c(Cl)cccc3Cl)cc1)C(=O)NC1CN3CCC1CC3)c(C)n2C(=O)c1ccc(Cl)cc1 [Analog M-1590, Indo-OC2Y-(S)-Aqu] | 4.1 | Stim. | – |
| CC1(C)CC(NC(=O)C(Cc2ccc(OCc3c(Cl)cccc3Cl)cc2)NC(=O)C2=CN3CCC2CC3)CC(C)(C)N1 (stereo not drawn) [Analog M-1396, Dhq-OC2Y-Atmp] | 15 | 9% | – |
| CC1(C)CC(NC(=O)C(Cc2ccc(OCc3c(Cl)cccc3Cl)cc2)NC(=O)c2ccc(-c3ccccc3)cc2)CC(C)(C)N1 (stereo not drawn) [Analog M-1542, 4Bpc-OC2Y-Atmp] | 6.4 | Stim. | – |
| COc1ccc2c(c1)c(CC(=O)N[C@H](Cc1ccc(OCc3c(Cl)cccc3Cl)cc1)C(=O)NC1CC(C)(C)NC(C)(C)C1)c(C)n2C(=O)c1ccc(Cl)cc1 [Analog M-1586, Indo-D-OC2Y-Atmp] | 1.7 | 38% | – |
| O=C(C=Cc1c(F)c(F)c(F)c(F)c1F)NC(Cc1ccc(OCc2c(Cl)cccc2Cl)cc1)C(=O)NC1CCN(Cc2ccccc2)CC1 (stereo not drawn) [Analog M-1552, F5c-OC2Y-Abzp] | 13 | 52% | – |
| CC1(C)CC(NC(=O)C(Cc2c(F)c(F)c(F)c(F)c2F)NC(=O)C=Cc2c(F)c(F)c(F)c(F)c2F)CC(C)(C)N1 (stereo not drawn) [Analog M-1054, F5c-F5F-Atmp] | – | 47% | 4.6 |

| SMILES | IC50 (SCLC strain SHP-77; read-out: SCLC SHP-77 IC50) [µM] | PC3 In vivo % inhib. (PC3 PC cells) | IC50 (SCLC strain SHP-77; read-out: SHP-77 In vitro IC50) [µM] |
| --- | --- | --- | --- |
| O=C(N[C@@H]1CN2CCC1CC2)C(Cc1ccc(OCc2c(Cl)cccc2Cl)cc1)NC(=O)C(c1ccccc1)C1CCCCC1 (single isomer, unassigned) [M-1550 #1] | 2.5 | 36% | – |
| CC1(C)CC(NC(=O)C(Cc2ccc(OCc3c(Cl)cccc3Cl)cc2)NC(=O)C23CC4CC(CC(C4)C2)C3)CC(C)(C)N1 (stereo not drawn) [Analog M-1494, Aca-OC2Y-Atmp] | 1.6 | 40% | – |
| Cc1ccc(CSC(C)(C)C(NC(=O)C=Cc2cc(F)cc(F)c2F)C(=O)NC2CC(C)(C)NC(C)(C)C2)cc1 (stereo not drawn) [Analog M-1502, F3c-Pen(Mbzl)-Atmp] | 3.4 | 11% | – |
| CC1(C)CC(NC(=O)C(Cc2ccc(OCc3c(Cl)cccc3Cl)cc2)NC(=O)C2C(C)(C)C2(C)C)CC(C)(C)N1 (stereo not drawn) [Analog M-1406, Tmcc-OC2Y-Atmp] | 5.3 | 25% | – |
| Cc1ccc(CSC(C)(C)C(NC(=O)C23CC4CC(CC(C4)C2)C3)C(=O)NC2CC(C)(C)NC(C)(C)C2)cc1 (stereo not drawn) [Analog M-1492, Aca-Pen(Mbzl)-Atmp] | 3.4 | 15% | – |
| O=C(C=Cc1c(F)c(F)c(F)c(F)c1F)NC(Cc1ccc(OCc2c(Cl)cccc2Cl)cc1)C(=O)NC1CN2CCC1CC2 [Analog M-1546, F5c-OC2Y-(S)-Aqu] | 1.8 | 29% | – |
| COc1ccc2c(c1)c(CC(=O)N[C@@H](Cc1ccc(OCc3c(Cl)cccc3Cl)cc1)C(=O)N1CCN(c3ncccn3)CC1)c(C)n2C(=O)c1ccc(Cl)cc1 [Analog M-1562, Indo-OC2Y-Pmpz] | > 60 | 2% | – |
| CC1(C)CC(NC(=O)C(NC(=O)C=Cc2c(F)c(F)c(F)c(F)c2F)C2Cc3ccccc3C2)CC(C)(C)N1 (stereo not drawn) [Analog M-1052, F5c-Igl-Atmp] | – | 27% | 7.3 |
| CC1(C)CC(NC(=O)C(Cc2ccc(F)cc2)NC(=O)C=Cc2ccco2)CC(C)(C)N1 (stereo not drawn) [Analog M-1154, 2-Fa-PFF-Atmp] | – | Stim | > 60 |
| COc1ccc2c(c1)c(CC(=O)NC(Cc1ccc(OCc3c(Cl)cccc3Cl)cc1)C(=O)N1CC(C)N(Cc3ccccc3)C(C)C1)c(C)n2C(=O)c1ccc(Cl)cc1 (stereo not drawn) [Analog M-1560, Indo-OC2Y-cDmbp] | > 60 | Stim. | – |
| Cc1ccc(CSC(C)(C)C(NC(=O)c2cnccn2)C(=O)NC2CC(C)(C)NC(C)(C)C2)cc1 (stereo not drawn) [Analog M-1522, 2Pyz-Pen(Mbzl)-Atmp] | 31 | Stim. | – |
| COc1cc(C(=O)NC(Cc2ccc(OCc3c(Cl)cccc3Cl)cc2)C(=O)NC2CC(C)(C)NC(C)(C)C2)cc(OC)c1OC (stereo not drawn) [Analog M-1408, 3,4,5Tmb-OC2Y-Atmp] | 8 | Stim. | – |
| CC1(C)CC(NC(=O)C(Cc2ccc(OCc3c(Cl)cccc3Cl)cc2)NC(=O)CC2Cc3ccccc3C2)CC(C)(C)N1 (stereo not drawn) [Analog M-1448, 2Ina-OC2Y-Atmp] | 13 | 11% | – |
| CC1(C)CC(NC(=O)C(Cc2ccc(OCc3c(Cl)cccc3Cl)cc2)NC(=O)C(C2CCCCC2)C2CCCCC2)CC(C)(C)N1 (stereo not drawn) [Analog M-1116, Dca-OC2Y-Atmp] | – | 19% | 7.5 |
| C=CCN1C(C)CN(C(=O)C(Cc2ccc(OCc3c(Cl)cccc3Cl)cc2)NC(=O)C=Cc2c(F)c(F)c(F)c(F)c2F)CC1C (stereo not drawn) [Analog M-1614, F5c-OC2Y-cDmap] | 2 | 54% | – |
| O=C(C=Cc1c(F)c(F)c(F)c(F)c1F)NC(Cc1ccc(-c2ccccc2)cc1)C(=O)N1CCN(c2ncccn2)CC1 (stereo not drawn) [Analog M-1260, F5c-Bip-Pmpz] | – | 60% | 10 |
| CC1(C)CC(NC(=O)C(Cc2ccc(OCc3c(Cl)cccc3Cl)cc2)NS(=O)(=O)c2c(F)c(F)c(F)c(F)c2F)CC(C)(C)N1 (stereo not drawn) [Analog M-1092, F5BS-OC2Y-Atmp] | – | Stim. | 14 |
| Cc1ccc(CSC(C)(C)C(NC(=O)CCCCC2SCC3NC(=O)NC32)C(=O)NC2CC(C)(C)NC(C)(C)C2)cc1 (stereo not drawn) [Analog M-1468, Biot-Pen(Mbzl)-Atmp] | > 60 | 46% | – |
| CC1(C)CC(NC(=O)C(Cc2ccc(C#N)cc2)NC(=O)CCCCC2SCC3NC(=O)NC32)CC(C)(C)N1 (stereo not drawn) [Analog M-1466, Biot-PCNF-Atmp] | > 60 | 29% | – |
